Bounds are passed on as bounds.

Data set [1] concerns the target c-Jun N-terminal kinase, JNK (Homo sapiens, UniProt P45983+P53779+P45984). Briefly: Inhibition of JNK, c-Jun N-terminal kinase. Format: protein assay.
Data set [2] has as its target Hepatocyte growth factor receptor (Homo sapiens) (UniProt P08581). Briefly: Inhibition of Hepatocyte growth factor receptor at 30 uM. Format: cell-based.
In data set [3] the target is Insulin-like growth factor 1 receptor (Homo sapiens, UniProt P08069). Nature of the data set: Inhibitory concentration against IGF kinase was determined.
Sequence of Insulin-like growth factor 1 receptor (P08069 31-736 limits assumed): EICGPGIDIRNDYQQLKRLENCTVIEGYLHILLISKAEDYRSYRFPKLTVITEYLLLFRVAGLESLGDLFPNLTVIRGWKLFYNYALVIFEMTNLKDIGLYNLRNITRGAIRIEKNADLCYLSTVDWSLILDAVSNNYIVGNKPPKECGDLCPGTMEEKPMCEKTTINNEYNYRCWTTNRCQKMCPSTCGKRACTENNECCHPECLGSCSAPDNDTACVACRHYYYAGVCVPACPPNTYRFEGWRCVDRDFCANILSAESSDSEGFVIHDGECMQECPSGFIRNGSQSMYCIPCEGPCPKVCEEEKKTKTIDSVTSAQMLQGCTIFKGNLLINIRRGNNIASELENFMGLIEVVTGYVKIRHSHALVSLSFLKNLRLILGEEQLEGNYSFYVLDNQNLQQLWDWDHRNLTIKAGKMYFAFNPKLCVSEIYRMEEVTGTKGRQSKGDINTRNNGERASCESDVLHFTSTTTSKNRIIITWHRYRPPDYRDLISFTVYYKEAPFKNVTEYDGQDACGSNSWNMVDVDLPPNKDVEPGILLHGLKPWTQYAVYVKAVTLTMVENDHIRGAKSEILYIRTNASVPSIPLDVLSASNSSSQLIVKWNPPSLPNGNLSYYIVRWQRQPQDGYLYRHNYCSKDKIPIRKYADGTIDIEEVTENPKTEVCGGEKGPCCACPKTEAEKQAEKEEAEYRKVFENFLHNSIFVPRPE
Sequence of Insulin-like growth factor 1 receptor (P08069 741-1367 limits assumed): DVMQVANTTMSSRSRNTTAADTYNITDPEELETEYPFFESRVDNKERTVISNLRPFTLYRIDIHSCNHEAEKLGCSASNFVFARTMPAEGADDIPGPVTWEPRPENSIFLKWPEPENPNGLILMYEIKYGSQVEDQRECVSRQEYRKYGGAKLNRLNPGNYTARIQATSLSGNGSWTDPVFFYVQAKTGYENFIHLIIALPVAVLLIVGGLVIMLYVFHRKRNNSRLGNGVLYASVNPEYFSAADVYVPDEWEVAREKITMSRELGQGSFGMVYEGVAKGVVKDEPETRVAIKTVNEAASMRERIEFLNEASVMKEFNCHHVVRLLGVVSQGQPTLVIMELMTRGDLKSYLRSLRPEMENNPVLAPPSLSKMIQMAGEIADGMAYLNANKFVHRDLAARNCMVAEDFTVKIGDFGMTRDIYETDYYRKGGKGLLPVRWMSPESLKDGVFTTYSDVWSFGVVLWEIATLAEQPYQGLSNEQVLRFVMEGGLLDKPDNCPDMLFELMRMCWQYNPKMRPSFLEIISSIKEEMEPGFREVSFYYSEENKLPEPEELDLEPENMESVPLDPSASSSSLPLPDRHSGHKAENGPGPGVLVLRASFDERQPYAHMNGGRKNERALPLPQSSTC
Data set [4] is described as follows: % Bioavailability after 4 day of the drug administration in rats. The note with it: rat, in vivo. Format: ADME, organism-based.
The target of data set [5] is Macrophage colony-stimulating factor 1 receptor (Homo sapiens) (UniProt P07333). Briefly: Inhibition of Colony stimulating factor 1 receptor at 30 uM.
Sequence of Macrophage colony-stimulating factor 1 receptor (Homo sapiens) (P07333 whole entry): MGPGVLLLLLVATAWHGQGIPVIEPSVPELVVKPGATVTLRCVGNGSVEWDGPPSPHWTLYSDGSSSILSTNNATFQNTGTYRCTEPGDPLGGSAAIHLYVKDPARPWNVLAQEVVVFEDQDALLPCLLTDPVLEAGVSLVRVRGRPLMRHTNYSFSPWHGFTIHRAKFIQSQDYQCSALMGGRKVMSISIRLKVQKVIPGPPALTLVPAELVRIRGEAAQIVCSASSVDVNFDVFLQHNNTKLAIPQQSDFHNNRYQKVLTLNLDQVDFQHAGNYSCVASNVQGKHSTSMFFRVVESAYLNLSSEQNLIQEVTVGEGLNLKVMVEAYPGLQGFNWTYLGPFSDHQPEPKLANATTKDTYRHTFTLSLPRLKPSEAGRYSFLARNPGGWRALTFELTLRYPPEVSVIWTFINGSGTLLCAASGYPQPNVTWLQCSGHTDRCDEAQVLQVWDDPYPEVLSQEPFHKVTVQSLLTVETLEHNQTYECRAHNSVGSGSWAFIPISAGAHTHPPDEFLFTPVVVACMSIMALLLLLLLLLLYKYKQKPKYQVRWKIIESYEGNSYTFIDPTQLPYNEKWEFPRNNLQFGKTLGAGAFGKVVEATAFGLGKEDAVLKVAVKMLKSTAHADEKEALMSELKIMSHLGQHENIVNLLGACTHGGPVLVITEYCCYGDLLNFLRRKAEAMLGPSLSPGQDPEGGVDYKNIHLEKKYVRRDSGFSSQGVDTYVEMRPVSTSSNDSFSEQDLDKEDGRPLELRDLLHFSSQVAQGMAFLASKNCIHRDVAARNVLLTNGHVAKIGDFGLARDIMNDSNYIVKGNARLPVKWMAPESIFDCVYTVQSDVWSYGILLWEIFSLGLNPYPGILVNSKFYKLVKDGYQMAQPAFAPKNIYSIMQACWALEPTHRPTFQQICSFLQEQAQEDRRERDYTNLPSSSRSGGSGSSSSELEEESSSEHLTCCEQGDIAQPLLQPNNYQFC
For data set [6], the target named is T1, Tyrosine-protein kinase JAK3 (Homo sapiens, UniProt P52333).
T1 sequence (P52333 whole entry): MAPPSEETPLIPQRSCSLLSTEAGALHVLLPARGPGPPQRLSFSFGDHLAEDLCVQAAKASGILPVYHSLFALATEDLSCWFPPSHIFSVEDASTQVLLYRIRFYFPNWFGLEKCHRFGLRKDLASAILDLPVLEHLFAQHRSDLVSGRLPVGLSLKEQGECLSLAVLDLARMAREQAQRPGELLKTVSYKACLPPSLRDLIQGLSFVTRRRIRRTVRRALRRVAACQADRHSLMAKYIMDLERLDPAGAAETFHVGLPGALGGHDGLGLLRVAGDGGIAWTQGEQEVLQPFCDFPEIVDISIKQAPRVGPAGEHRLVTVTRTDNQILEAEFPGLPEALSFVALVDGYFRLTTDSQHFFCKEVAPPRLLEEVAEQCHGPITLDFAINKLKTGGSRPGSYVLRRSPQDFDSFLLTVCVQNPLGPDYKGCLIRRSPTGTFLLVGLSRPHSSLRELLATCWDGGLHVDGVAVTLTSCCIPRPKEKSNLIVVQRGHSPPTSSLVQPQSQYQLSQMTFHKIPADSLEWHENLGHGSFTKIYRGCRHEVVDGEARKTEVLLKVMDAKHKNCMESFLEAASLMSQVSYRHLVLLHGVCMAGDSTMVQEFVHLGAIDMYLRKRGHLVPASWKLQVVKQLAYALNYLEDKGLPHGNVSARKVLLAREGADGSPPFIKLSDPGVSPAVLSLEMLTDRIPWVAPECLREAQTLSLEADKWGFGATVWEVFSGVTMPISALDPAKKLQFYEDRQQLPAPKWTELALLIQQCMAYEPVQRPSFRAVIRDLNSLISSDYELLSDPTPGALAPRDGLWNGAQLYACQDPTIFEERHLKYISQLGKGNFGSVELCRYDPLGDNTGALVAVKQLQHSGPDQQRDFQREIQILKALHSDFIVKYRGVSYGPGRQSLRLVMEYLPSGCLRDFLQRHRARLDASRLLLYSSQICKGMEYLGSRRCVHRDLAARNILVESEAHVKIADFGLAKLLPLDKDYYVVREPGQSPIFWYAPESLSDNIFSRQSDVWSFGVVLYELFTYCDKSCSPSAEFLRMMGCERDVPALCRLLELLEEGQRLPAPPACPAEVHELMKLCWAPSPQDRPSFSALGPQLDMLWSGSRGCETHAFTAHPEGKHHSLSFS
Briefly: Inhibition of Janus kinase 3.

Data set [7] concerns the target Tyrosine-protein kinase JAK2 (Homo sapiens, UniProt O60674). Briefly: Inhibition of Janus kinase 2.
Data set [8] addresses Tyrosine-protein kinase SYK (Homo sapiens) (UniProt P43405). Briefly: Inhibition of Syk tyrosine kinase at 10 uM.
The nature of data set [9]: % Bioavailability after 1 day of the drug administration in rats. Format: ADME, organism-based. The settings on record: rat, in vivo.
For data set [10], the target named is cAMP-dependent protein kinase (PKA) (Homo sapiens) (UniProt P22694+P17612+P22612). Nature of the data set: Inhibition of Protein kinase A at 100 uM. Format: protein assay.
Data set [11] deals with Protein kinase C (PKC) (Homo sapiens) (UniProt O94806+P41743+P17252+P05129+Q05655+P05771+Q05513+Q02156+P24723+Q15139+Q04759). Briefly: Inhibition of Protein kinase C at 100 uM. Format: protein assay.
Data set [12] can be described thus: Inhibition of Collagen production. Format: functional.
Data set [13] addresses Vascular endothelial growth factor receptor (Homo sapiens) (UniProt P17948+P35916+P35968). Briefly: Inhibition of VEGF receptor kinase at 30 uM. Format: protein assay.
The target in data set [14] is T2, Tyrosine-protein kinase ZAP-70 (Homo sapiens) (UniProt P43403).
T2 sequence (whole entry): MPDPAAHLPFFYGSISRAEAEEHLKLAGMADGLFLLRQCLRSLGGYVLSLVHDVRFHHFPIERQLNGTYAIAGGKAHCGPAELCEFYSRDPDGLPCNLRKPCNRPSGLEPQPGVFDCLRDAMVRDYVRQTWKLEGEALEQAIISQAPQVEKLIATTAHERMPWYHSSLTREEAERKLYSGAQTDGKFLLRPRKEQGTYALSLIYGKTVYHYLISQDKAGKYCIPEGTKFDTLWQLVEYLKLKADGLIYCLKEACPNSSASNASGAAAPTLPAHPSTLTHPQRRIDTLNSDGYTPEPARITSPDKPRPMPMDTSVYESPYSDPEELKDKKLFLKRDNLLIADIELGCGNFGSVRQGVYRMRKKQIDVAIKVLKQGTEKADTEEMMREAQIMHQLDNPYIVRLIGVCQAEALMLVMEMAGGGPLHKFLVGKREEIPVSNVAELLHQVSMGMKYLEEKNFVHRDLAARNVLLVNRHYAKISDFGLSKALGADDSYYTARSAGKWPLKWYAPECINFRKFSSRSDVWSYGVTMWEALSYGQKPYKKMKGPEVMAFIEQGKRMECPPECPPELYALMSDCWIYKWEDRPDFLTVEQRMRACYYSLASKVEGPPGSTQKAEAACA
Nature of the data set: Inhibition of Zeta-chain (TCR) associated protein kinase 70kDa, Zap70 at 10 uM.

Data set [15] has as its target T3, Platelet-derived growth factor receptor (Homo sapiens, UniProt P09619+P16234). Nature of the data set: Inhibition of Platelet-derived growth factor receptor. Format: protein-complex assay.
Data set [16] can be described thus: Bioavailability in rat after 1 day dosing. Format: ADME, organism-based. The note with it: in vivo.
The nature of data set [17]: Bioavailability in rat after 4 day dosing. Format: ADME, organism-based. The note with it: in vivo.
Another data set deals with HASMC. Nature of the data set: Inhibition of mitogenesis in human aortic smooth muscle cells (HASMC). Format: functional, cell-based.
In data set [18] the target is T3, Platelet-derived growth factor receptor. Briefly: Inhibition of Platelet-derived growth factor receptor at 1 uM. Format: protein-complex assay.
Data set [19] shares this target. Nature of the data set: Inhibition of Platelet-derived growth factor receptor at 10 uM. Format: protein-complex assay.

Sequence of Tyrosine-protein kinase JAK2 (O60674 whole entry): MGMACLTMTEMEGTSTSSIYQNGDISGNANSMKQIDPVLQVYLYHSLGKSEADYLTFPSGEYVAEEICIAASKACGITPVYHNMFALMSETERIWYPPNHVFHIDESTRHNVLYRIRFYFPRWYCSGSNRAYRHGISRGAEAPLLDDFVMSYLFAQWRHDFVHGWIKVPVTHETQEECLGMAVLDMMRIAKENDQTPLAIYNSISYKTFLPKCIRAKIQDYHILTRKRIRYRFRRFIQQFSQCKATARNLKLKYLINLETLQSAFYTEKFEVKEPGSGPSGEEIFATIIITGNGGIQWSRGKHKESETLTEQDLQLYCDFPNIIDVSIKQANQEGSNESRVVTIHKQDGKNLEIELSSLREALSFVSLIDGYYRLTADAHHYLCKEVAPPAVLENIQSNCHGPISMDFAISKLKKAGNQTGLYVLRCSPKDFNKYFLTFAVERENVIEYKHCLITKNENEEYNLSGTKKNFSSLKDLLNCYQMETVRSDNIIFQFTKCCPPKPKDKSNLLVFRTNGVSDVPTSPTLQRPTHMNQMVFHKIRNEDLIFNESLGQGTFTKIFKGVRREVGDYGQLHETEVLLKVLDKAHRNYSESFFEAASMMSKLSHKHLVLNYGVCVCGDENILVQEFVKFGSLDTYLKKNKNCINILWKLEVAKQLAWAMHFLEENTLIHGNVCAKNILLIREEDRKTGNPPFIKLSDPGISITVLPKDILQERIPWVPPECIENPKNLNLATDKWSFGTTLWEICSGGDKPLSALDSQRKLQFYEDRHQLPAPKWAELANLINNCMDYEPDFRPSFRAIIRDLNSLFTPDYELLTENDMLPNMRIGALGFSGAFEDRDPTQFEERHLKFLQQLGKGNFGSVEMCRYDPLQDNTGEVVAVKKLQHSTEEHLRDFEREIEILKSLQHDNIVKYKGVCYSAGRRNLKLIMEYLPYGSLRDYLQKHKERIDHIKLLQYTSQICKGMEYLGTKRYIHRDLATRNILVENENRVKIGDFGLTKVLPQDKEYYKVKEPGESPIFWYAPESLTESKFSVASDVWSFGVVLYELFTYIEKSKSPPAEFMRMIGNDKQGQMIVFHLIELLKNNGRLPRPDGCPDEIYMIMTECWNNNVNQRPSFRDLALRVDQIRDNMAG
Sequence of Hepatocyte growth factor receptor (Homo sapiens) (P08581 whole entry): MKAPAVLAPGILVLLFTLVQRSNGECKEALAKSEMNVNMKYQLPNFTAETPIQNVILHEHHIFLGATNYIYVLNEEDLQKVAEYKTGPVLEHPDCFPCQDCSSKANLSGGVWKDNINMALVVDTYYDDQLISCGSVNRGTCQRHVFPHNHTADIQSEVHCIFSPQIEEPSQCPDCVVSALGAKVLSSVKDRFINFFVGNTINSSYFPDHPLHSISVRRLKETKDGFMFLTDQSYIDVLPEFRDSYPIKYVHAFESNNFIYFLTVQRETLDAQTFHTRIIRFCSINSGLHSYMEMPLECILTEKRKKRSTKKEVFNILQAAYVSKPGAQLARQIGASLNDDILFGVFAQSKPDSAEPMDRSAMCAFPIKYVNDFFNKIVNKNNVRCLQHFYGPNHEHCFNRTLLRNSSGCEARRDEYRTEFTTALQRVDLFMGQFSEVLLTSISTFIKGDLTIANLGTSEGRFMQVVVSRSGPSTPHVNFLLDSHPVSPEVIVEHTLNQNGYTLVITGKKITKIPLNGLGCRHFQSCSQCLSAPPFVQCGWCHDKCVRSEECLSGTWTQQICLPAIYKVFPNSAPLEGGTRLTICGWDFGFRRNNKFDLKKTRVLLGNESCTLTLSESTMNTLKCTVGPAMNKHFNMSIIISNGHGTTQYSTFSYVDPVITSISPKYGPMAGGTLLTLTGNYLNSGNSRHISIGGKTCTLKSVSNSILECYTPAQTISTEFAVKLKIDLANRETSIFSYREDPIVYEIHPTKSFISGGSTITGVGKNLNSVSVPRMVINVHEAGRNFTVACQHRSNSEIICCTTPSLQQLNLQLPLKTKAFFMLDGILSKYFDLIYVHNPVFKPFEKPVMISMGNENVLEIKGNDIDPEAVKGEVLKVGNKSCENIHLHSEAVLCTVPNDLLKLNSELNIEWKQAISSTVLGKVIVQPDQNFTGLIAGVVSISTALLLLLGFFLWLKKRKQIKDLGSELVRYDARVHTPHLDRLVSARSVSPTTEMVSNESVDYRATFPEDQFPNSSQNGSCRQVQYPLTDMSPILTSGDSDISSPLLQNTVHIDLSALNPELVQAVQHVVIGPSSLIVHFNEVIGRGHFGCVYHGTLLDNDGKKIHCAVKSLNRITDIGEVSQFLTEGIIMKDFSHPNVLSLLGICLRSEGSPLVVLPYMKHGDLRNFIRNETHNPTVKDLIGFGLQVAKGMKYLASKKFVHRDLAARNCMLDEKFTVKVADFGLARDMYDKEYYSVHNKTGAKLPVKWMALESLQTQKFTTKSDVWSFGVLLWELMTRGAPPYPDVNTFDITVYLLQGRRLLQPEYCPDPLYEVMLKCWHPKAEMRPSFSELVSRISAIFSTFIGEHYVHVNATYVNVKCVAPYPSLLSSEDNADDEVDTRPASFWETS

Broadly, the IC50 is the concentration needed to halve the response being measured. Low readings indicate greater potency, high ones weaker potency. Usually inhibition stands for the change of the read-out against control, counted positive when it falls. Usually bioavailability stands for dose-corrected exposure relative to a reference, in per cent. Turning to `COc1cc2ncc(N[C@H]3CC[C@H](O)CC3)nc2cc1OC`, the IC50 in data set [1] was > 50000 nM; in [3], > 10000 nM; in data set [6], > 50000 nM; in [7], > 50000 nM; in data set [12], 389 nM. The inhibition in data set [2] was 17%; in data set [5], 2%; in [8], 54%; in data set [10], 3%; in data set [11] it was 7%; in data set [13], 0%. Besides, the inhibition in data set [14] is 0%. Also, the bioavailability in data set [4] stood at 72%; in [9] it was 82%.

As to `CNC(=O)C1CCC(Nc2cnc3cc(OC)c(OC)cc3n2)CC1` (stereo not drawn), the IC50 in [15] was found to be 3100 nM.

Turning to `COc1cc2cc(-c3ccsc3)cnc2cc1OC`, the bioavailability in [16] turned out to be 49%; in [17], 21%.

On to `COc1cc2ncc(N[C@H]3CC[C@@H](O)[C@H](C)C3)nc2cc1OC`, for which, in the data set with HASMC, the IC50 is > 10000 nM. The inhibition in data set [18] was found to be 5%.

`COc1cc2ncc(NC3CCC(C(=O)N4CCN(C)CC4)CC3)nc2cc1OC` (stereo not drawn): the inhibition in data set [18] was found to be 10%.

In the case of `COc1cc2ncc(N[C@@H]3CC4CC3C[C@H]4O)nc2cc1OC` (stereo partly drawn), the IC50 with HASMC is 164 nM; in data set [15], 24 nM.

With `COc1cc2ncc(NC3CCC(C(=O)O)CC3)nc2cc1OC` (stereo not drawn), the inhibition in [18] was 15%.

Turning to `COc1cc2ncc(N[C@@H]3CC[C@H](O)[C@@H](C)C3)nc2cc1OC`, the concentration for half-maximal inhibition (IC50) with HASMC is 134 nM; in [15], 18 nM.

Take `COc1cc2ncc(N3C(=O)C4CCC3CC4)nc2cc1OC`: in data set [19], the inhibition is 14%.

The compound `COc1cc2ncc(N[C@H]3CC[C@H](C(=O)OC)CC3)nc2cc1OC` returned a half-maximal inhibitory concentration (IC50) in data set [15] of 345 nM.

With `COc1cc2ncc(NC3CCCC(N)C3)nc2cc1OC` (stereo not drawn), the inhibition in [18] was -9%.

The compound `COc1cc2ncc(NC3CCC(C(N)=O)CC3)nc2cc1OC` (stereo not drawn) registered an IC50 in [15] of 930 nM.

Regarding `COc1cc2ncc(NC3CCCCC3)nc2cc1OC`, the bioavailability in data set [16] is 17%; in data set [17] it was 16%.

The compound `COC(=O)C1CCC(Nc2cnc3cc(OC)c(OC)cc3n2)CC1` (stereo not drawn) came in with a concentration for half-maximal inhibition (IC50) in data set [15] of 49 nM.

For `COc1cc2ncc(N[C@H]3CC[C@@H](C(=O)OC)CC3)nc2cc1OC`, in data set [15], the IC50 came to 28 nM.

The record behind these values is ChEMBL document CHEMBL1136216, “Potent quinoxaline-based inhibitors of PDGF receptor tyrosine kinase activity. Part 2: the synthesis and biological activities of RPR127963 an orally bioavailable inhibitor” (Bioorg Med Chem Lett, 2003).
